Measured values as given in patent US9233929B2, “Fungicide N-cycloalkyl-N-bicyclimethylene-carboxamide derivatives” (priority 2009, dated 2016).

Test: logP
Type: physicochemical

SMILES	logP
Cc1nn(C)c(F)c1C(=S)N(C1CC1)C(C)C1CCCc2ccccc21 (centres unmarked) [I.3, N-cyclopropyl-5-fluoro-1,3-dimethyl-N-[1-(1,2,3,4-tetrahydronaphthalen-1-yl)ethyl]-1H-pyrazole-4-carbothioamide]	4.39
CC(N(C(=O)c1cn(C)nc1C(F)F)C1CC1)C1(O)CCCc2ccccc21 (centres unmarked) [I.10, N-cyclopropyl-3-(difluoromethyl)-N-[1-(1-hydroxy-1,2,3,4-tetrahydronaphthalen-1-yl)ethyl]-1-methyl-1H-pyrazole-4-carboxamide]	2.94
